Target: USP7 (Homo sapiens (Human), UniProt Q93009)
Test: USP7 Biochemical IC50 Assay
Conditions: FLAG-USP7; enzyme and compound incubated 30 min at room temp; TAMRA labelled peptide-ubiquitin fluorescence polarisation substrate; read after 2 hr; read-out: IC50 range
Method: The USP7 construct was PCR amplified and cloned into a pFLAG-CMV-6a vector (Sigma-Aldrich) with an N-terminal FLAG tag. HEK293T cells were transfected with FLAG-USP7 using TransIT-LT1 transfection reagent (Mirus) according to the manufacturer's instructions. Cells were harvested 40 hours after transfection. […] The resin was washed two times with low salt buffer plus protease inhibitors (complete mini, Roche) and phosphatase inhibitors (PhosSTOP mini, Roche) and one time with high salt buffer (20 mM Tris, pH 7.5, 500 mM NaCl, 0.5 mM EDTA, 5 mM beta-mercaptoethanol, protease inhibitors (complete mini, Roche) and phosphatase inhibitors (PhosSTOP mini, Roche). To elute the bound USP7, elution buffer (10 mM Tris, pH 7.5, 150 mM NaCl, 0.5 mM EDTA, 10% glycerol, 0.5% NP40, 5 mM beta-mercaptoethanol, 0.15 mg/ml 3×FLAG peptide (Sigma-Aldrich)) was added to the resin and incubated at 4° C. for 2.5 hours rotating. The resin was centrifuged at 4000 rpm for 30 seconds, and the supernatant containing purified FLAG-USP7 was removed and stored at −80° C.
USP7 Biochemical IC50 Assay
A typical 8-point dilution series would be 100, 30, 10, 3, 1, 0.3, 0.1, 0.03 μM final. […] Either 1 μl of 50% DMSO or diluted compound was added to the plate. USP7 was diluted in reaction buffer (20 mM Tris, pH 7.5, 100 mM NaCl, 0.05% Tween 20, 0.5 mg/ml BSA, 5 mM—beta mercaptoethanol) to the equivalent of 0.0025 μl/well and 10 μl of diluted USP7 was added to the compound. Enzyme and compound were incubated for 30 min at room temp. Reactions were initiated by the addition of 50 nM of TAMRA labelled peptide linked to ubiquitin via an iso-peptide bond as fluorescence polarisation substrate. Reactions were read immediately after addition of substrate and following a 2 hr incubation at room temperature. Readings were performed on a Pherastar Plus (BMG Labtech). λ Excitation 540 nm; λ Emission 590 nm.

USP7, sequence (Q93009 whole entry): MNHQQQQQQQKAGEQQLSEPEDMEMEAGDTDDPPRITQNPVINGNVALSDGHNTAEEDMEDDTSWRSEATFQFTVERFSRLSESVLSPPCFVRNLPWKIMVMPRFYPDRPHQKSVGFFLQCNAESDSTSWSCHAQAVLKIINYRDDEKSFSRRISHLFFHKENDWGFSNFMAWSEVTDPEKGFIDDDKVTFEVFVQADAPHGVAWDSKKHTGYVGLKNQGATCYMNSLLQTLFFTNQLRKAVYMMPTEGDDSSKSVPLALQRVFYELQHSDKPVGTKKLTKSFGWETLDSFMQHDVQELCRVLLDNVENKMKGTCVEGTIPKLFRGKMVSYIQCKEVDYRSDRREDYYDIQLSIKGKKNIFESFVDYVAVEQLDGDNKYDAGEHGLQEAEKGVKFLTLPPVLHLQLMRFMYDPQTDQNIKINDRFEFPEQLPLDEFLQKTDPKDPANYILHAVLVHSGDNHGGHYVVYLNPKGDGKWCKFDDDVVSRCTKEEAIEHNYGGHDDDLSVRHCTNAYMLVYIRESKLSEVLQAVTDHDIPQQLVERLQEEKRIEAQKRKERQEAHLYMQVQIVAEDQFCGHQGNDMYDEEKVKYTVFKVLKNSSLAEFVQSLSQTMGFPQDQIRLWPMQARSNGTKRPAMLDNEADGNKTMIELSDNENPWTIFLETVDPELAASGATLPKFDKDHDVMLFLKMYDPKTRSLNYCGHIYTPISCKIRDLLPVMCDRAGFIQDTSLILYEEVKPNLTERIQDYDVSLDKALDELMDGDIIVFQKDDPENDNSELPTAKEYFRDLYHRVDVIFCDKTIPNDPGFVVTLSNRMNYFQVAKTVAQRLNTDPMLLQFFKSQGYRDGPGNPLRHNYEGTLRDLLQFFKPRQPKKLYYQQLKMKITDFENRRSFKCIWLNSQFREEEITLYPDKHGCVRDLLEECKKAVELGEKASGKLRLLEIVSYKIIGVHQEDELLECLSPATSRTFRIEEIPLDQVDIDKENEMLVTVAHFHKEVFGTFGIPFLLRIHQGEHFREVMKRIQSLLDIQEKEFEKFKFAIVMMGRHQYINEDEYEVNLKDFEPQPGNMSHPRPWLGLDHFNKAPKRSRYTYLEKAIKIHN

| Compound | IC50 [µM] |
| --- | --- |
| N#CN1Cc2[nH]nc(-c3ccc(Oc4ccccc4)cc3)c2C1 [Example 41, 3-(4-Phenoxyphenyl)-4,6-dihydropyrrolo[3,4-c]pyrazole-5(1H)-carbonitrile] | < 10 |
| N#Cc1ccc(-c2n[nH]c3c2CN(C#N)C3)cc1 [Example 42, 3-(4-Cyanophenyl)-4,6-dihydropyrrolo[3,4-c]pyrazole-5(1H)-carbonitrile] | < 10 |
| N#CN1Cc2[nH]nc(-c3cc(OC(F)(F)F)ccc3Cl)c2C1 [Example 44, 3-(2-Chloro-5-(trifluoro-methoxy)phenyl)-4,6-dihydropyrrolo[3,4-c]pyrazole-5(1H)-carbonitrile] | < 10 |
| CNC(=O)c1ccc(-c2n[nH]c3c2CN(C#N)C3)cn1 [Example 45, 5-(5-Cyano-1,4,5,6-tetrahydropyrrolo[3,4-c]pyrazol-3-yl)-N-methylpicolinamide] | < 10 |
| COc1ccc(-c2n[nH]c3c2CN(C#N)C3)cn1 [Example 46, 3-(6-Methoxypyridin-3-yl)-4,6-dihydro-pyrrolo[3,4-c]pyrazole-5(1H)-carbonitrile] | < 10 |
| CN(C)S(=O)(=O)c1cccc(-c2n[nH]c3c2CN(C#N)C3)c1 [Example 47, 3-(5-Cyano-1,4,5,6-tetrahydropyrrolo[3,4-c]pyrazol-3-yl)-N,N-dimethylbenzene-sulfonamide] | < 10 |
| N#CN1Cc2[nH]nc(-c3ccc(C(=O)NCc4ccccc4)cc3)c2C1 [Example 49, N-Benzyl-4-(5-cyano-1,4,5,6-tetrahydropyrrolo[3,4-c]pyrazol-3-yl)benzamide] | < 10 |
| CC(C)Oc1ccc(-c2n[nH]c3c2CN(C#N)C3)cn1 [Example 50, 3-(6-Isopropoxypyridin-3-yl)-4,6-dihydropyrrolo[3,4-c]pyrazole-5(1H)-carbonitrile] | < 10 |
| N#CN1Cc2[nH]nc(-c3ccnn3Cc3ccccc3)c2C1 [Example 53, 3-(1-Benzyl-1H-pyrazol-5-yl)-4,6-dihydropyrrolo[3,4-c]pyrazole-5(1H)-carbonitrile] | 10 to 30 |
| Cc1ccc2[nH]ncc2c1-c1n[nH]c2c1CN(C#N)C2 [Example 54, 3-(5-Methyl-1H-indazol-4-yl)-4,6-dihydropyrrolo[3,4-c]pyrazole-5(1H)-carbonitrile] | < 10 |
| N#CN1Cc2[nH]nc(-c3cccc(S(=O)(=O)NC4CC4)c3)c2C1 [Example 55, 3-(5-Cyano-1,4,5,6-tetrahydropyrrolo[3,4-c]pyrazol-3-yl)-N-cyclopropylbenzene-sulfonamide] | < 10 |
| N#CN1Cc2[nH]nc(-c3cccc(NS(=O)(=O)C4CC4)c3)c2C1 [Example 56, N-(3-(5-Cyano-1,4,5,6-tetrahydropyrrolo[3,4-c]pyrazol-3-yl)phenyl)cyclo-propanesulfonamide] | < 10 |
| N#CN1Cc2[nH]nc(-c3ccc(F)cc3)c2C1 [Example 59, 3-(4-Fluorophenyl)-4,6-dihydropyrrolo[3,4-c]pyrazole-5(1H)-carbonitrile] | < 10 |
| Cc1ccc(F)c(-c2nn(C)c3c2CN(C#N)C3)c1 [Example 60, 3-(2-fluoro-5-methylphenyl)-1-methyl-4,6-dihydropyrrolo[3,4-c]pyrazole-5(1H)-carbonitrile] | < 10 |
| Cc1ccc(F)c(-c2c3c(nn2C)CN(C#N)C3)c1 [Example 61, 3-(2-fluoro-5-methylphenyl)-2-methyl-2,6-dihydropyrrolo[3,4-c]pyrazole-5(4H)-carbonitrile] | 10 to 30 |
| COc1ccc(C(C)C)cc1-c1nn(C)c2c1CN(C#N)C2 [Example 62, 3-(5-Isopropyl-2-methoxyphenyl)-1-methyl-4,6-dihydropyrrolo[3,4-c]pyrazole-5(1H)-carbonitrile] | < 10 |
| COc1ccc(C(C)C)cc1-c1c2c(nn1C)CN(C#N)C2 [Example 63, 3-(5-Isopropyl-2-methoxyphenyl)-2-methyl-2,6-dihydropyrrolo[3,4-c]pyrazole-5(4H)-carbonitrile] | 10 to 30 |
| N#CN1Cc2[nH]nc(CNC(=O)c3cn4cc(Cl)ccc4n3)c2C1 [Example 65, 6-Chloro-N-((5-cyano-1,4,5,6-tetrahydropyrrolo[3,4-c]pyrazol-3-yl)methyl)-imidazo[1,2-a]pyridine-2-carboxamide] | < 10 |
| COc1ccc(Cl)cc1-c1n[nH]c2c1CN(C#N)C2 [Example 77, 3-(5-Chloro-2-methoxyphenyl)-4,6-dihydropyrrolo[3,4-c]pyrazole-5(4H)-carbonitrile] | < 10 |
| N#CN1Cc2cnn(-c3cccc(NS(=O)(=O)C4CC4)c3)c2C1 [Example 78, N-(3-(5-Cyano-5,6-dihydropyrrolo[3,4-c]pyrazol-1(4H)-yl)phenyl) cyclopropanesulfonamide] | 10 to 30 |
| N#CN1Cc2[nH]nc(-c3ccc(C(=O)NCc4ccccc4)cc3F)c2C1 [Example 79, N-Benzyl-4-(5-cyano-1,4,5,6-tetrahydropyrrolo[3,4-c]pyrazol-3-yl)-3-fluorobenzamide] | < 10 |

The remaining lines, values ahead:

| IC50 [µM] | Compound |
| --- | --- |
| < 10 | N#CN1Cc2[nH]nc(-c3ccc(C(F)(F)F)cc3F)c2C1 [Example 43, 3-(2-Fluoro-4-(trifluoromethyl)phenyl)-4,6-dihydropyrrolo[3,4-c]pyrazole-5(1H)-carbonitrile] |
| < 10 | CC(C)Oc1ccc(F)cc1-c1n[nH]c2c1CN(C#N)C2 [Example 48, 3-(5-Fluoro-2-isopropoxyphenyl)-4,6-dihydropyrrolo[3,4-c]pyrazole-5(1H)-carbonitrile] |
| < 10 | CN1CCN(C(=O)c2ccc(-c3n[nH]c4c3CN(C#N)C4)cc2)CC1 [Example 51, 3-(4-(4-Methylpiperazine-1-carbonyl)phenyl)-4,6-dihydropyrrolo[3,4-c]pyrazole-5(1H)-carbonitrile] |
| < 10 | Cn1ncc2cc(-c3n[nH]c4c3CN(C#N)C4)ccc21 [Example 52, 3-(1-Methyl-1H-indazol-5-yl)-4,6-dihydropyrrolo[3,4-c]pyrazole-5(1H)-carbonitrile] |
| < 10 | N#CN1Cc2[nH]nc(-c3cccc(F)c3)c2C1 [Example 57, 3-(3-Fluorophenyl)-4,6-dihydropyrrolo[3,4-c]pyrazole-5(1H)-carbonitrile] |
| < 10 | N#CN1Cc2[nH]nc(-c3ccccc3F)c2C1 [Example 58, 3-(2-Fluorophenyl)-4,6-dihydropyrrolo[3,4-c]pyrazole-5(1H)-carbonitrile] |
| < 10 | CCc1ccc(OC)c(-c2n[nH]c3c2CN(C#N)C3)c1 [Example 64, 3-(5-Ethyl-2-methoxyphenyl)-4,6-dihydropyrrolo[3,4-c]pyrazole-5(1H)-carbonitrile] |
| < 10 | CN1CCN(c2ccc(-c3n[nH]c4c3CN(C#N)C4)cc2)CC1 [Example 66, 3-(4-(4-Methylpiperazin-1-yl)phenyl)-4,6-dihydro-pyrrolo[3,4-c]pyrazole-5(1H)-carbonitrile] |
| < 10 | COc1cc(Cl)ccc1-c1n[nH]c2c1CN(C#N)C2 [Example 67, 3-(4-Chloro-2-methoxyphenyl)-4,6-dihydropyrrolo[3,4-c]pyrazole-5(4H)-carbonitrile] |
| < 10 | CN1CCC(n2cc(-c3n[nH]c4c3CN(C#N)C4)cn2)CC1 [Example 68, 3-(1-(1-Methylpiperidin-4-yl)-1H-pyrazol-4-yl)-4,6-dihydropyrrolo[3,4-c]pyrazole-5(1H)-carbonitrile] |
| < 10 | CN1CCN(c2ccc(-c3n[nH]c4c3CN(C#N)C4)cn2)CC1 [Example 69, 3-(6-(4-Methylpiperazin-1-yl)pyridin-3-yl)-4,6-dihydropyrrolo[3,4-c]pyrazole-5(1H)-carbonitrile] |
| < 10 | COc1cc(-n2cccn2)ccc1-c1n[nH]c2c1CN(C#N)C2 [Example 70, 3-(2-Methoxy-4-(1H-pyrazol-1-yl)phenyl)-4,6-dihydropyrrolo[3,4-c]pyrazole-5(4H)-carbonitrile] |
| < 10 | CN1CCN(c2cccc(-c3n[nH]c4c3CN(C#N)C4)c2)CC1 [Example 71, 3-(3-(4-Methylpiperazin-1-yl)phenyl)-4,6-dihydropyrrolo[3,4-c]pyrazole-5(1H)-carbonitrile] |
| < 10 | N#CN1Cc2[nH]nc(-c3ccc(N4CCOCC4)cc3)c2C1 [Example 72, 3-(4-Morpholinophenyl)-4,6-dihydropyrrolo[3,4-c]pyrazole-5(1H)-carbonitrile] |
| < 10 | CN1CCN(c2ccc(-c3n[nH]c4c3CN(C#N)C4)c(F)c2)CC1 [Example 73, 3-(2-Fluoro-4-(4-methylpiperazin-1-yl)phenyl)-4,6-dihydro-pyrrolo[3,4-c]pyrazole-5(1H)-carbonitrile] |
| < 10 | Cc1cc(-c2n[nH]c3c2CN(C#N)C3)ccc1N1CCN(C)CC1 [Example 74, 3-(3-Methyl-4-(4-methylpiperazin-1-yl)phenyl)-4,6-dihydro-pyrrolo[3,4-c]pyrazole-5(1H)-carbonitrile] |
